{
  "source": "paper PMC11874377",
  "about": "“Fungal-derived methyldeoxaphomins target Plasmodium falciparum segregation through the inhibition of PfActin1” (Proceedings of the National Academy of Sciences of the …, 2025)",
  "key": {"[1]": {"system": "Plasmodium falciparum Dd2-Pol δ", "test": "In vitro evolution of resistance, bulk culture populations", "assay_type": "cell-based", "settings": "after selection from 90 nM to 17 μM over 6.3 mo", "method": "We next sought to identify the molecular target of NPDG-F using in vitro evolution in a hypermutator line Dd2-Pol δ. This line was created to facilitate faster resistance development through the modification of the catalytic residues in DNA polymerase δ via CRISPR-Cas9 ([13]). Three populations of parasites grown in parallel were exposed to increasing concentrations of NPDG-F from the initial 90 nM to a final concentration of 17 μM over 6.3 mo. Once resistance (~4.2-fold) was identified in the 3 bulk culture populations, parasite DNA was extracted, followed by library preparation and whole-genome sequencing. […]\nThe in vitro evolution was conducted using Plasmodium falciparum Dd2-Pol δ. […] Every 2 or 3 days, parasitemia was determined via Giemsa smear and reset to 2% (for a 3-day split, 1.6 X108 parasites) or 3% (for a 2-day split, 2.4 X108). […] Resistance development was monitored every 3 months through SYBR green I- based EC50 dose response assay as described above. […]\nParasite genomic DNA was extracted from the parent and the resistant lines using DNeasy Blood & Tissue Kit (Qiagen). […] The pooled libraries were sequenced on Illumina NovaSeq 6000 with S4 200 chemistry to generate paired end reads with 100bp in length.\nReads were aligned to Plasmodium falciparum reference genome 3D7 (PlasmoDB v13.0) using an in-house pipeline (Cowell & Winzeler, 2019). […]"}, "[2]": {"system": "Dd2", "test": "Stage specific activity assay", "assay_type": "cell-based, Plasmodium falciparum", "settings": "5 × EC50", "method": "To corroborate the findings identified through the in vitro evolution of resistance, the activity of NPDG-F was assessed in a stage-dependent manner in vitro. Because actin proteins are needed for chromosome separation, we anticipated that parasites treated with NPDG-F would arrest late in the cell cycle. The parasite strain Dd2 was first synchronized and treated in ring (~6 h post invasion, HPI), trophozoite (~18 HPI), early schizont (~30 HPI), or late schizont (~42 HPI). Cultures were then observed in each condition every 12 h until reinvasion occurred via Giemsa stain and flow cytometry. When added in early ring, NPDG-F treated cultures proceeded normally through the intraerythrocytic life cycle until late schizogony (Fig. 4A). […]\nEC50s. […] Dose-response curves were then generated for the available conditions where EC50s could be determined. The fractional inhibitor concentration of both compounds was then determined as described (Fivelman et al., 2004) for the available points and graphed on a scale of 0-1 also using Graphpad Prism version 10.\nCytotoxicity was assessed using an MTS (3-(4,5-Dimethylthiazol-2-yl)-5-(3-carboxymethoxyphenyl)-2-(4-sulfophenyl)-2H-tetrazolium) absorbance assay with human HepG2 hepatoma cells. […] Following a 48-h incubation with compounds, MTS solution was added to wells and absorbance was read after 2-4 h on a Synergy Neo2 multimode reader (BioTek Winsooki, VT). […]"}},
  "data": [
    {"smiles": "C=C1C(C)C2C(Cc3ccccc3)NC(=O)C23C(=O)C=CC(O)C(O)C(C)CC(C)CC=CC3C1O", "note": "(stereo not drawn) [Methyldeoxaphomin NPDG-F]", "values": [
      {"measurement": "resistance in the 3 bulk culture populations", "setting": "[1]", "result": "~ 4.2 fold"},
      {"measurement": "effect when added after 6 HPI", "setting": "[2]; 18, 30 or 42 HPI", "result": "persisted only in a minor population of schizonts"},
      {"measurement": "effect when added in early ring", "setting": "[2]; ~6 HPI, synchronous Dd2", "result": "complete life cycle inhibition"}
    ]}
  ]
}
